Data set [1] in a line: Half life in Sprague-Dawley rat at 1 mg/kg, iv. As to conditions: in vivo. Also on record: dose 1 mg/kg, route intravenous. The data set is classed as ADME, organism-based.
A short description of data set [2]: Clearance in Sprague-Dawley rat at 1 mg/kg, iv and 2 mg/kg, po. The data set is classed as ADME, organism-based. The following applies: in vivo.
Data set [3] can be described thus: Drug metabolism in rat liver S9 fraction assessed as NADPH-dependent glutathione conjugate level at 10 uM after 30 mins by LC-MS/MS analysis. The data set is classed as ADME, subcellular. As to conditions: s9, 0.5 h.
Data set [4] concerns the target T1, Prostaglandin E2 receptor EP3 subtype (Homo sapiens, UniProt P43115).
T1 sequence (P43115 whole entry): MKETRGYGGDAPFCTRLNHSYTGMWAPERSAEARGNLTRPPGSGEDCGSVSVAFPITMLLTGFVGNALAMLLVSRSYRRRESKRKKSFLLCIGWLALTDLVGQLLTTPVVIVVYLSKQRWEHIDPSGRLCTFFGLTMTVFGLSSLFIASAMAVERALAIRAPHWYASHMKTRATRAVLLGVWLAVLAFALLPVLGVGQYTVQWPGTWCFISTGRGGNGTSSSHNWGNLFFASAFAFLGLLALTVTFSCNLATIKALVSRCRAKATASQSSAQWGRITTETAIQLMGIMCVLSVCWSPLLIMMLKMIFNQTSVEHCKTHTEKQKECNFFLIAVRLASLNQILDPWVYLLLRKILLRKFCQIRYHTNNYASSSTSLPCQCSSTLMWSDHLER
Nature of the data set: Antagonist activity at human EP3c receptor expressed in human U2OS cells assessed as inhibition of PGE2-induced calcium mobilization after 24 hrs by FLIPR assay. The data set is classed as functional, cell-based. In general terms: Calcium flux is commonly read through the fluorescence of an indicator in the cells.

Data set [5] can be described thus: Drug metabolism in human liver S9 fraction assessed as glutathione conjugate level at 10 uM after 30 mins by HPLC in absence of NADPH. The class given is ADME, subcellular. As to conditions: s9, 0.5 h.
Data set [6] can be described thus: Oral bioavailability in Sprague-Dawley rat at 2 mg/kg. The class given is ADME, organism-based. The following applies: in vivo.
Data set [7] can be described thus: Drug metabolism in rat liver S9 fraction assessed as glutathione conjugate level at 10 uM after 30 mins by HPLC in absence of NADPH. The data set is classed as ADME, subcellular. The following applies: s9, 0.5 h.
A short description of data set [8]: Drug metabolism in human liver S9 fraction assessed as NADPH-dependent glutathione conjugate level at 10 uM after 30 mins by LC-MS/MS analysis. The following applies: s9, 0.5 h. The data set is classed as ADME, subcellular.
Data set [9] has as its system Rattus norvegicus. Nature of the data set: Dose-normalized AUC in Sprague-Dawley rat at 2 mg/kg, po. The following applies: in vivo. The class given is ADME, organism-based. Also on record: dose 2 mg/kg, route oral.
Data set [10] deals with T2, Prostaglandin E2 receptor EP3 subtype (Rattus norvegicus, UniProt P34980).
T2 sequence (P34980 whole entry): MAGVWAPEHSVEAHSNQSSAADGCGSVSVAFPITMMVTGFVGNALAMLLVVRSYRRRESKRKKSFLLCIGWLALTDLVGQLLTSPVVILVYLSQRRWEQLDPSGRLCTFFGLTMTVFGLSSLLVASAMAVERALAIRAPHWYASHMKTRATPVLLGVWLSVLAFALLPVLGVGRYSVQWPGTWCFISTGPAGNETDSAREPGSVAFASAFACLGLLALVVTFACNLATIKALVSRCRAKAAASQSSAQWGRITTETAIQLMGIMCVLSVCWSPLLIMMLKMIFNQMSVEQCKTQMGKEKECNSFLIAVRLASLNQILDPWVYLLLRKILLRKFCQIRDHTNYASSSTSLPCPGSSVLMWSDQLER
Kind of data set: Antagonist activity at rat EP3 receptor expressed in human U2OS cells co-expressing Gqi5 assessed as inhibition of PGE2-induced response after 24 hrs by FLIPR assay. The class given is functional, cell-based.

In data set [11] the test system is Rattus norvegicus. Nature of the data set: Inhibition of GR63799-induced decrease in bladder capacity in conscious spontaneously hypertensive overactive bladder rat model at 30 mg/kg, id. The data set is classed as functional, organism-based. As to conditions: Urinary bladder. Also on record: dose 30 mg/kg.
For data set [12], the system named is Rattus norvegicus. Nature of the data set: Inhibition of GR63799-induced decrease in bladder capacity in conscious spontaneously hypertensive overactive bladder rat model at 0.3 mg/kg, id. The data set is classed as functional, organism-based. As to conditions: Urinary bladder. Also noted: dose 0.3 mg/kg.
The subject of data set [13] is Rattus norvegicus. Nature of the data set: Inhibition of PGE2-induced decrease in bladder capacity in conscious spontaneously hypertensive overactive bladder rat model at 30 mg/kg, id. The following applies: Urinary bladder. Also on record: dose 30 mg/kg. The class given is functional, organism-based.
Data set [14] can be described thus: Antagonist activity at dog EP3 receptor expressed in human U2OS cells co-expressing Gqi5 assessed as inhibition of PGE2-induced response after 24 hrs by FLIPR assay. The class given is functional, cell-based, Canis lupus familiaris.
Data set [15] relates to Rattus norvegicus. Nature of the data set: Inhibition of acetic acid-induced decrease in bladder capacity in conscious spontaneously hypertensive overactive bladder rat model at 30 mg/kg, id. The class given is functional, organism-based. Also on record: dose 30 mg/kg. As to conditions: Urinary bladder.
The subject of data set [16] is Rattus norvegicus. Nature of the data set: Inhibition of saline-induced bladder rhythmic contraction in anesthetized iv dosed Sprague-Dawley rat model. The class given is functional, organism-based.
Data set [17] deals with Rattus norvegicus. Nature of the data set: Inhibition of GR63799-induced decrease in bladder capacity in conscious spontaneously hypertensive overactive bladder rat model at 3 mg/kg, id. The data set is classed as functional, organism-based. Also on record: dose 3 mg/kg. The following applies: Urinary bladder.
Data set [18] concerns the target T3, Prostaglandin E2 receptor EP1 subtype (Homo sapiens, UniProt P34995).
T3 sequence (P34995 whole entry): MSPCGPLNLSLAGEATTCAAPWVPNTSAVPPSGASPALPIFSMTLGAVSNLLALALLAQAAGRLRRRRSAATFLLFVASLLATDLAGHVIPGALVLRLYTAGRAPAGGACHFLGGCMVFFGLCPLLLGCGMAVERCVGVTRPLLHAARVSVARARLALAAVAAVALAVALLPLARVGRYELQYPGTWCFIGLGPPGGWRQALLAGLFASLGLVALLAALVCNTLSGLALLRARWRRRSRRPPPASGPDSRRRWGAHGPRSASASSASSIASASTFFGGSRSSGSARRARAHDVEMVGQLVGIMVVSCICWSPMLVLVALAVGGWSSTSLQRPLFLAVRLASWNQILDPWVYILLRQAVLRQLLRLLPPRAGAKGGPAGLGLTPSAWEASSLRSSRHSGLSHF
Kind of data set: Antagonist activity at EP1 receptor in human U2OS cells expressing Gqi5 assessed as inhibition of PGE2-induced response after 24 hrs by FLIPR assay. The class given is functional, cell-based.

The source made the active and inactive calls. The calls are words filed in the database; no cut-off is given here.

From ChEMBL document CHEMBL2034937, “Novel 3-Oxazolidinedione-6-aryl-pyridinones as Potent, Selective, and Orally Active EP3 Receptor Antagonists” (ACS Med Chem Lett, 2010) come the findings set out here.

As usually defined, the half-life is the time in which the quantity being followed falls by half. Low readings indicate rapid decline, high ones slow decline. Broadly, the Ki is a measure of affinity in units of concentration, obtained from inhibition or displacement. A word on the bioavailability: it is the share of a dose that reaches the circulation, judged against a reference dose that is usually intravenous. The low end stands for poor availability, the high end for good availability. As a reminder, the pKi is the negative decadic logarithm of the Ki, by convention in mol/L.

With `CC(C)C1(c2ccc(-c3ccc4c(ccn4C)c3)[nH]c2=O)OC(=O)NC1=O` (centres undefined), the half-life in [1] is 4.2 h. The clearance in data set [2] was determined as 4.5 mL/min/kg. The Drug metabolism entry in data set [3], in [5], in [7] and in data set [8] was “Not Active” each time. The values for the Ki in [4] and in data set [10] were 6.31 nM and 7.94 nM, respectively. This compound also gave a bioavailability in [6] of 80%. In data set [9], the AUC/dose amounted to 3 µg·h/mL/mg/kg.
With `Cc1ccc(-c2ccc(C3(C(C)C)OC(=O)NC3=O)c(=O)[nH]2)cc1C` (centres undefined), the half-life in data set [1] was 2.8 h. In data set [2], the clearance is 6.3 mL/min/kg. For the same compound, the Drug metabolism entry in data set [3], in data set [5], in [7] and in [8] was “Not Active” in each case. The Ki in [4] was 20 nM; in data set [10], 12.6 nM. The bioavailability in data set [6] was determined as 68%. In data set [9], the AUC/dose was found to be 1.8 µg·h/mL/mg/kg.
Take `CC(C)C1(c2ccc(-c3ccc4ccccc4c3)[nH]c2=O)OC(=O)NC1=O` (centres undefined): the inhibition entry in data set [11], in [13], in data set [15] and in data set [17] was “Active” throughout. In addition, the inhibition entry in [12] is “inactive”. For the same compound, the pKi in data set [14] is on record as 7.7. Moreover, the inhibition entry in data set [16] was “Dose-dependent effect”.
`O=C1NC(=O)C(c2ccc(-c3ccc4ccccc4c3)[nH]c2=O)O1` (centres undefined): the half-life in data set [1] was 5.1 h. Further, the clearance in data set [2] is 31 mL/min/kg. Also, the Ki in data set [4] was 200 nM; in [18], above 5010 nM; in data set [10], 316 nM. In addition, in data set [6], the bioavailability was 32%. Further, the AUC/dose in data set [9] was found to be 0.17 µg·h/mL/mg/kg.
Compound `CC(C)C1(c2ccc(-c3ccc4cccc(F)c4c3)[nH]c2=O)OC(=O)NC1=O` (centres undefined) had a half-life in data set [1] of 3.9 h. This compound also gave a clearance in [2] of 2.8 mL/min/kg. The Drug metabolism entry in data set [3], in data set [5], in data set [7] and in data set [8] was “Not Active” in each case. In addition, the Ki in data set [4] and in data set [10] was 3.16 nM in each case. In data set [6], the bioavailability worked out at 93%. This compound also came in with an AUC/dose in [9] of 5.6 µg·h/mL/mg/kg.
